What is called IC50 is the concentration needed to halve the response being measured. A higher IC50 goes with lower potency.

Each structure is given as a SMILES string.

The assay concerns the target T1, Human cGAS amino acids 155-522 (Homo sapiens, UniProt Q8N884).
T1 construct: hexahistidine tag (N, cleaved yes); made in house; host or cells: E. coli BL21 DE3 Rosetta 2
The assay is described as follows: cGAS activity assay (DNA-activated cGAS, remaining ATP measured by Kinase-Glo Max luciferase assay). The conditions noted are these: 300 nM purified cGAS, 1 μM dsDNA, 250 μM ATP, 100 μM GTP, 37° C. for 1.25 hours. In kind it is biochemical. As for the experimental part: IC50 values were determined as follows:
Human cGAS sequence encoding amino acids 155-522 was cloned into a pET (EMD Millipore) based expression plasmid. The resulting construct contained a tandem N-terminal hexahistidine tag, maltose binding protein fusion followed by a tobacco etch virus protease cleavable linker preceding cGAS amino acids 155-522.
Construct sequence: Amino acids 155-522, Human cGAS
Protein was expressed and purified from E. coli BL21 DE3 Rosetta 2 (EMD Millipore) cells using standard techniques. Cells were grown in 2× yeast extract tryptone medium and expression was initiated via the addition of isopropyl β-D-1-thiogalactopyranoside. Expression proceeded overnight at 18° C. Cells were harvested by centrifugation and subsequently lysed via sonication. Insoluble fraction was removed by centrifugation. Maltose binding protein (MBP) fusion proteins were purified on a dextrin sepharose column (GE Healthcare) and the MBP tag was removed using tobacco etch virus protease overnight during dialysis. Protein was further purified on a heparin column (GE Healthcare) and eluted using a NaCl gradient. Column fraction were pooled and further purified on a Superdex 75 gel filtration column (GE Healthcare). Protein was quantified using 280 nm absorbance. Protein was then flash frozen in liquid nitrogen and stored at −80° C. until use.
Potential antagonists were diluted in 100% dimethyl sulfoxide and added to the reaction. Final dimethyl sulfoxide concentration was 5%. The compounds were tested from 1 μM with either 3- or 4-fold serial dilutions down to 0.000051 or 0.000004 μM respectively.
Two complementary DNA oligos (IDT DNA) were annealed by slow cooling from 95° C. The resulting double stranded DNA was used to activate cGAS.
Reactions were performed at 37° C. for 1.25 hours. Reaction buffer: 20 mM Tris HCl pH 9, 100 mM NaCl, 5 mM MgCl2, 0.1 mg/ml bovine gamma globulin, 250 μM adenosine triphosphate, 100 μM guanosine triphosphate, 0.5 mM Tris(2-carboxyethyl)phosphine hydrochloride, 1 μM double stranded DNA and 300 nM purified cGAS protein.
Reactions were stopped and ATP levels in the reaction were measured using a luciferase based assay. Promega Kinase-Glo Max Assay. Luminescence was measured on a plate reader (Molecular Devices). Values were normalized to control wells lacking compound.
Background: Kinase-Glo measures the ATP left after a reaction by luminescence.

T1 sequence (Q8N884 157-522): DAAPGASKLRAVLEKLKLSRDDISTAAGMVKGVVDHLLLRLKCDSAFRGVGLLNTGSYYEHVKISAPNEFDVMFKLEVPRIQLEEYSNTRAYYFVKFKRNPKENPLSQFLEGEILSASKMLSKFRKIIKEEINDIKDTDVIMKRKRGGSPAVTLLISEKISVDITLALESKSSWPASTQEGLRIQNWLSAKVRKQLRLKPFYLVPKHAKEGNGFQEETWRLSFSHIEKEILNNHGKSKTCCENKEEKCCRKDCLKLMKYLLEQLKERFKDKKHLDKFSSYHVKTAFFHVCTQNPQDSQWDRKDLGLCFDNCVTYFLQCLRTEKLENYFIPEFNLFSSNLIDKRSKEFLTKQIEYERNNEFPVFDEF

`COC(=O)[C@H](Cc1ccc(C#N)cc1)Nc1nc(Cl)nc(Nc2cccc(CN3CCN(C(=O)OC(C)(C)C)CC3)c2)n1` [TA1002, tert-butyl (S)-4-(3-((4-chloro-6-((3-(4-cyanophenyl)-1-methoxy-1-oxopropan-2-yl)amino)-1,3,5-triazin-2-yl)amino)benzyl)piperazine-1-carboxylate] had an IC50 of over 250 µM.

In turn, `COC(=O)[C@H](Cc1ccc(C#N)cc1)Nc1nc(NCc2nc3cc(F)ccc3[nH]2)nc(Nc2cccc(CN3CCN(C(=O)OC(C)(C)C)CC3)c2)n1` [TA1003, tert-butyl (S)-4-(3-((4-((3-(4-cyanophenyl)-1-methoxy-1-oxopropan-2-yl)amino)-6-(((5-fluoro-1H-benzo[d]imidazol-2-yl)methyl)amino)-1,3,5-triazin-2-yl)amino)benzyl)piperazine-1-carboxylate] showed an IC50 of over 250 µM.

As to `CN(C)C(=O)[C@H](Cc1ccc(C#N)cc1)Nc1nc(Cl)nc(Nc2cccc(CN3CCN(C(=O)OC(C)(C)C)CC3)c2)n1` [TA1008, tert-butyl (S)-4-(3-((4-chloro-6-((3-(4-cyanophenyl)-1-(dimethylamino)-1-oxopropan-2-yl)amino)-1,3,5-triazin-2-yl)amino)benzyl)piperazine-1-carboxylate], the IC50 was over 250 µM.

For `CN(C)C(=O)[C@H](Cc1ccc(C#N)cc1)Nc1nc(Cl)nc(Nc2cccc(CN3CCNCC3)c2)n1` [TA1009, (S)-2-((4-chloro-6-((3-(piperazin-1-ylmethyl)phenyl)amino)-1,3,5-triazin-2-yl)amino)-3-(4-cyanophenyl)-N,N-dimethylpropanamide], the IC50 is over 250 µM.

Consider `CN(C)C(=O)[C@H](Cc1ccc(C#N)cc1)Nc1ncnc(Nc2cccc(CN3CCN(C(=O)OC(C)(C)C)CC3)c2)n1` [TA1010, tert-butyl (S)-4-(3-((4-((3-(4-cyanophenyl)-1-(dimethylamino)-1-oxopropan-2-yl)amino)-1,3,5-triazin-2-yl)amino)benzyl)piperazine-1-carboxylate], for which the IC50 was over 250 µM.

`CN(C)C(=O)[C@H](Cc1ccc(C#N)cc1)Nc1ncnc(Nc2cccc(CN3CCNCC3)c2)n1` [TA1011, (S)-3-(4-cyanophenyl)-N,N-dimethyl-2-((4-((3-(piperazin-1-ylmethyl)phenyl)amino)-1,3,5-triazin-2-yl)amino)propanamide] returned an IC50 of over 250 µM.

Regarding `CN(C)C(=O)[C@H](Cc1ccc(C#N)cc1)Nc1nc(NCc2nc3cc(F)ccc3[nH]2)nc(Nc2cccc(CN3CCNCC3)c2)n1` [TA1013, (S)-3-(4-cyanophenyl)-2-((4-(((5-fluoro-1H-benzo[d]imidazol-2-yl)methyl)amino)-6-((3-(piperazin-1-ylmethyl)phenyl)amino)-1,3,5-triazin-2-yl)amino)-N,N-dimethylpropanamide], the IC50 is over 250 µM.

On to `Cc1cc2nc(CN(C)c3nc(Nc4cccc(CN5CCNCC5)c4)nc(N[C@@H](Cc4ccc(C#N)cc4)C(=O)N(C)C)n3)[nH]c2cc1C` [TA1014, (S)-3-(4-cyanophenyl)-2-((4-(((5,6-dimethyl-1H-benzo[d]imidazol-2-yl)methyl)(methyl)amino)-6-((3-(piperazin-1-ylmethyl)phenyl)amino)-1,3,5-triazin-2-yl)amino)-N,N-dimethylpropanamide], for which the IC50 is over 250 µM.

Regarding `Cc1cc2nc(CN(C)c3nc(Nc4cccc(CN5CCN(C(=O)c6cc7[nH]cnc7cc6C)CC5)c4)nc(N[C@@H](Cc4ccc(C#N)cc4)C(=O)N(C)C)n3)[nH]c2cc1C` [TA1015, (S)-3-(4-cyanophenyl)-2-((4-(((5,6-dimethyl-1H-benzo[d]imidazol-2-yl)methyl)(methyl)amino)-6-((3-((4-(5-methyl-1H-benzo[d]imidazole-6-carbonyl)piperazin-1-yl)methyl)phenyl)amino)-1,3,5-triazin-2-yl)amino)-N,N-dimethylpropanamide], the IC50 is over 250 µM.

The values are drawn from US20210246122A1, “Triazine Compounds and Uses Thereof” (Aduro Biotech, Inc., priority 2018, published 2021).
